# Data as given in US20070270392A1, “Use of a Cyclopentenone Prostaglandin for Delaying the Onset and/or Preventing the Continuation of Labour” (Imperial College Innovations Limited, priority 2003, published 2007).
# Experiments:
# Type in all cases: cell-based, human
# NF-κB [1] = experiment: EMSA of NF-κB DNA binding in nuclear extracts of treated amnion cells; conditions: L− and L+ amnion cells, treated 2 h, IL-1β stimulation 15 min
# Experimental: Electro-mobility shift assay (EMSA) analysis of NF-κB DNA binding in nuclear protein extracts from (A) myometrial cells, (B) L+amnion cells, and (C) L− amnion cells treated with 15dPGJ2 or vehicle for 2 h+/−IL-1b stimulation (15 min). Consensus kB probe used to assess NF-κB DNA binding, and consensus Oct-1 probe used as control.
# EMSA analysis of nuclear protein extracts from amnion cells treated with 15dPGJ2+/−GW9662 or vehicle for 2 h followed by IL-1β stimulation (15 min). Consensus kB probe used to assess NFκB DNA binding, consensus Oct-1 probe used as control.
# EMSA analysis of nuclear protein extracts from (A) myometrial cells, and (B) amnion cells treated with PGA1 or vehicle for 2 h followed by IL-1b stimulation (15 min). Consensus κB probe used to assess NFκB DNA binding, consensus Oct-1 probe used as control. For supershift analysis, extracts were preincubated with antibodies against p50 or p65.
# EMSA analysis of nuclear protein extracts from (A) L− amnion cells and (B) myometrial cells treated with vehicle, PGE2 or IL-1β. Consensus κB probe used.
# (§1) Placentae were obtained from patients at term either at elective Caesarean section prior to labour (L−) or following spontaneous labour onset and vaginal delivery (L+). Amnion cells were prepared as described in Bennett et al., (1989). Briefly, the amnion was separated from the placenta, washed 3× in PBS, cut into strips, and incubated in 0.51 mM EDTA in PBS for 15 min. The strips were washed in PBS 2× and digested with 2.5 mg/ml dispase in serum-free DMEM for 35 min at 37° C. The amnion was then shaken vigorously in DMEM, 10% FCS to dissociate the cells, the remaining strips discarded, and the cell suspension pelleted at 175 g for 10 min and cultured in DMEM, 10% FCS (Sigma), 1% L-glutamine, 1% penicillin-streptomycin.
# (§2) Nuclear and cytosolic protein extracts were obtained from cultured amnion cells as described by Schreiber et al (1989). For nuclear/cytosolic fractionation, confluent cell monolayers were scraped and lysed using a buffer containing 10 mM HEPES, 10 mM KCl, 0.1 mM EDTA, 0.1 mM EGTA, 2 mM DTT, 1% (v/v) NP-40 and complete protease inhibitor tablets (CPIs, Roche), diluted to manufacturer's instructions. Cell lysates were incubated on ice for 10 min and NP-40 added to a final concentration of 1% (v/v). Lysates were vortexed for 10 secs and centrifuged for 30 secs at 4° C., 12000 g. The supernatants were retained as the cytosolic protein extracts. The pellets were resuspended in buffer containing 10 mM HEPES, 10 mM KCl, 0.1 mM EDTA, 0.1 mM EGTA, 2 mM DTT, 400 mM NaCl, 1% NP-40 (v/v) and CPIs. Samples were shaken vigorously for 15 min in an ice bath. The nuclear protein extracts were obtained in the supernatant following a 5 min centrifugation at 4° C., 12000 g.
# Sense and antisense strands (175 nmole/ml each) were incubated in annealing buffer (10 mM Tris-HCl pH7.5, 100 mM NaCl, 1 mM EDTA) for 10 min at 65° C., and allowed to cool at room temperature for 2 h. 3.5 pmole double-stranded oligonucleotides were end-labelled with 0.37 MBq ^32P(γATP) by incubating for 30 min at 37° C. with T4 polynucleotide kinase. Labelled oligonucleotides were recovered by centrifugation at […] for 2 min through MicroSpin G-25 or G-50 sephadex columns (Amersham Biosciences). […]
# NF-κB [2] = experiment: Western immunoblot of NF-κB activation (p65, p50, IκB) in amnion cells; conditions: L−
# Experimental: Western immunoblots of nuclear or cytosolic protein extracts from (A) myometrial cells, (B) L− amnion cells, and (C) L+amnion cells treated with 15dPGJ2 or vehicle for 2 h+/−IL-1, stimulation (15 min). Blots probed with antibodies against p65, p50 or IκBα.
# as §1, §2
# Protein samples (20-70 μg) were mixed with Laemmli sample buffer (1:1) containing β-mercaptoethanol (5%), and boiled for 5 min. Proteins were then separated by SDS-PAGE (12-14% gels) and transferred onto PVDF membrane (Amersham Pharmacia Biotech). The membranes were blocked overnight in 5% non-fat milk prepared in PBS-T buffer, at 4° C. The blots were incubated with the primary antibody in 1% non-fat milk in PBS-T buffer for 1 h, and washed three times (10 min each) in PBS-T with vigorous shaking. The blots were then incubated with HRP-conjugated secondary antibody (diluted 1:2000 in 1% non-fat milk in PBS-T buffer) for 1 h and washed three times (10 min each) in PBS-T. Signal detection was achieved using enhanced chemi-luminescence (ECL plus system, Amersham Pharmacia Biotech) according to manufacturer's instructions. […]
# IKKα or IKKβ = experiment: Western immunoblot of IKK protein expression in myometrial cells
# Experimental: Western immunoblots of cytosolic extracts from myometrial cells (A) treated with 15dPGJ2 for 2 h+/−IL1b for 15 min; probed for IKK, and (B) treated with […] 15dPGJ2, […] MG132 or vehicle for 2 h, +/−IL-1β for 15 min; probed for IκBα.
# (§3) Protein samples (20-70 μg) were mixed with Laemmli sample buffer (1:1) containing β-mercaptoethanol (5%), and boiled for 5 min. Proteins were then separated by SDS-PAGE (12-14% gels) and transferred onto PVDF membrane (Amersham Pharmacia Biotech). The membranes were blocked overnight in 5% non-fat milk prepared in PBS-T buffer, at 4° C. The blots were incubated with the primary antibody in 1% non-fat milk in PBS-T buffer for 1 h, and washed three times (10 min each) in PBS-T with vigorous shaking. The blots were then incubated with HRP-conjugated secondary antibody (diluted 1:2000 in 1% non-fat milk in PBS-T buffer) for 1 h and washed three times (10 min each) in PBS-T. Signal detection was achieved using enhanced chemi-luminescence (ECL plus system, Amersham Pharmacia Biotech) according to manufacturer's instructions.
# (§4) 30-50 μg protein extracts were subjected to SDS-PAGE and Western immuno-blotting. Secondary antibodies were IgG-HRP and ECL Plus detection kit (Amersham Pharmacia Biotech, Amersham Place, Little Chalfont, Bucks, HP7 9NA) was used for visualisation.
# PPAR-γ = experiment: Western immunoblot of PPAR-γ protein expression in myometrial and amnion cells
# Experimental: Western immunoblots of (A) nuclear and cytosolic protein extracts from myometrial and amnion cells with or without 15 min IL-1β stimulation, and (B) nuclear extracts of myometrial cells treated with 15d-PGJ2+/−IL-1b. Probing with antibody to PPARγ.
# as §3, §4
Compound,IL-1β-induced NF-κB DNA binding (NF-κB [1]),IL-1β-induced IκBα and IκBβ degradation (NF-κB [2]),IL-1β-induced p50 phosphorylation (NF-κB [2]),IL-1β-induced p65 nuclear translocation (NF-κB [2]),IKKα or IKKβ protein expression (IKKα or IKKβ),PPAR-γ protein expression (PPAR-γ)
"CCCCC[C@H](O)/C=C/[C@H]1C=CC(=O)[C@@H]1CCCCCCC(=O)O [PGA1, prostaglandin A1]",able to inhibit,,,,,
"CCCCCC=CC=C1C(=O)C=C[C@@H]1CC=CCCCC(=O)O [15d-PGJ2, 15-deoxy-Δ^12,14prostaglandin J2]",inhibited,inhibition,inhibited,inhibited,had no effect,not affected
